Measured values reported in the CheMixHub viscosity set.
± gives the uncertainty stated by the source.

Test: xn = mol fraction of the nth substance listed

CC(C)OCCO + CCCO
298.15 K, 101.33 kPa
Conditions | viscosity [mPa·s]
x1 = 0.0192 | 1.947 ± 0.016
x1 = 0.0257 | 1.944 ± 0.016
x1 = 0.045 | 1.941 ± 0.016
x1 = 0.0645 | 1.938 ± 0.016
x1 = 0.081 | 1.933 ± 0.016
x1 = 0.1072 | 1.93 ± 0.016
x1 = 0.1486 | 1.927 ± 0.016
x1 = 0.1863 | 1.923 ± 0.016
x1 = 0.2438 | 1.919 ± 0.017
x1 = 0.2942 | 1.914 ± 0.017
x1 = 0.3545 | 1.916 ± 0.017
x1 = 0.3782 | 1.921 ± 0.018
x1 = 0.4251 | 1.929 ± 0.018
x1 = 0.4749 | 1.938 ± 0.019
x1 = 0.5261 | 1.949 ± 0.019
x1 = 0.5659 | 1.958 ± 0.02
x1 = 0.6184 | 1.971 ± 0.02
x1 = 0.6608 | 1.983 ± 0.021
x1 = 0.7 | 1.996 ± 0.022
x1 = 0.7606 | 2.015 ± 0.022
x1 = 0.8023 | 2.025 ± 0.023
x1 = 0.8623 | 2.042 ± 0.024
x1 = 0.8845 | 2.052 ± 0.024
x1 = 0.9485 | 2.064 ± 0.025

CCCCOCCO + CCCO
viscosity [mPa·s], 101 kPa
Conditions | x1 = 0.3032 | x1 = 0.8553 | x1 = 0.9516
298.15 K | – | 2.725 ± 0.12 | –
303.15 K | 1.925 ± 0.12 | – | 2.615 ± 0.12

CCOCCOCCOCC + CCCO
298.15 K, 101.33 kPa
Conditions | viscosity [mPa·s]
x1 = 0.007 | 1.918 ± 0.015
x1 = 0.0129 | 1.894 ± 0.015
x1 = 0.0249 | 1.844 ± 0.015
x1 = 0.0395 | 1.788 ± 0.014
x1 = 0.0516 | 1.747 ± 0.014
x1 = 0.0695 | 1.687 ± 0.013
x1 = 0.097 | 1.611 ± 0.013
x1 = 0.1283 | 1.541 ± 0.012
x1 = 0.1736 | 1.458 ± 0.012
x1 = 0.2229 | 1.396 ± 0.011
x1 = 0.2672 | 1.354 ± 0.011
x1 = 0.3115 | 1.32 ± 0.011
x1 = 0.3638 | 1.291 ± 0.011
x1 = 0.4026 | 1.28 ± 0.01
x1 = 0.4592 | 1.259 ± 0.01
x1 = 0.5239 | 1.243 ± 0.01
x1 = 0.5856 | 1.231 ± 0.01
x1 = 0.6363 | 1.227 ± 0.01
x1 = 0.6742 | 1.225 ± 0.01
x1 = 0.7119 | 1.224 ± 0.01
x1 = 0.7662 | 1.222 ± 0.01
x1 = 0.8311 | 1.226 ± 0.01
x1 = 0.8815 | 1.231 ± 0.01
x1 = 0.9142 | 1.235 ± 0.01
x1 = 0.9468 | 1.239 ± 0.01
x1 = 0.9756 | 1.24 ± 0.01

CNC=O + CCCO
viscosity [mPa·s], 101 kPa
Conditions | x2 = 0.1009 | x2 = 0.2001 | x2 = 0.3003 | x2 = 0.4003 | x2 = 0.5005 | x2 = 0.6 | x2 = 0.7001 | x2 = 0.8009 | x2 = 0.9007
303.15 K | 1.545 ± 0.015 | 1.51 ± 0.014 | 1.475 ± 0.014 | 1.454 ± 0.013 | 1.441 ± 0.013 | 1.444 ± 0.013 | 1.464 ± 0.013 | 1.52 ± 0.014 | 1.605 ± 0.015
308.15 K | 1.423 ± 0.014 | 1.389 ± 0.013 | 1.357 ± 0.013 | 1.336 ± 0.012 | 1.322 ± 0.012 | 1.321 ± 0.012 | 1.337 ± 0.012 | 1.381 ± 0.013 | 1.448 ± 0.013
313.15 K | 1.316 ± 0.013 | 1.284 ± 0.012 | 1.252 ± 0.012 | 1.231 ± 0.011 | 1.216 ± 0.011 | 1.213 ± 0.011 | 1.225 ± 0.011 | 1.258 ± 0.011 | 1.31 ± 0.012
318.15 K | 1.22 ± 0.012 | 1.189 ± 0.011 | 1.158 ± 0.011 | 1.138 ± 0.011 | 1.123 ± 0.01 | 1.118 ± 0.01 | 1.124 ± 0.01 | 1.149 ± 0.01 | 1.188 ± 0.011
323.15 K | 1.134 ± 0.011 | 1.105 ± 0.011 | 1.075 ± 0.01 | 1.054 ± 0.0099 | 1.036 ± 0.0097 | 1.03 ± 0.0095 | 1.034 ± 0.0095 | 1.051 ± 0.0097 | 1.079 ± 0.01

COC(=O)c1ccccc1 + CCCO
viscosity [mPa·s], 100 kPa
Conditions | x1 = 0.05 | x1 = 0.1 | x1 = 0.2 | x1 = 0.3 | x1 = 0.4 | x1 = 0.5 | x1 = 0.6 | x1 = 0.65 | x1 = 0.8 | x1 = 0.9
293.2 K | 2.016 ± 0.043 | 1.887 ± 0.04 | 1.724 ± 0.037 | 1.65 ± 0.035 | 1.622 ± 0.035 | 1.621 ± 0.035 | 1.649 ± 0.035 | 1.669 ± 0.036 | 1.76 ± 0.038 | 1.872 ± 0.04
298.2 K | 1.794 ± 0.038 | 1.685 ± 0.036 | 1.547 ± 0.033 | 1.487 ± 0.032 | 1.464 ± 0.031 | 1.466 ± 0.031 | 1.492 ± 0.032 | 1.511 ± 0.032 | 1.594 ± 0.034 | 1.693 ± 0.036
303.2 K | 1.601 ± 0.034 | 1.509 ± 0.032 | 1.395 ± 0.03 | 1.344 ± 0.029 | 1.327 ± 0.028 | 1.332 ± 0.028 | 1.357 ± 0.029 | 1.375 ± 0.029 | 1.453 ± 0.031 | 1.54 ± 0.033
308.2 K | 1.434 ± 0.031 | 1.356 ± 0.029 | 1.262 ± 0.027 | 1.22 ± 0.026 | 1.209 ± 0.026 | 1.215 ± 0.026 | 1.239 ± 0.026 | 1.257 ± 0.027 | 1.33 ± 0.028 | 1.41 ± 0.03
313.2 K | 1.288 ± 0.028 | 1.223 ± 0.026 | 1.145 ± 0.024 | 1.112 ± 0.024 | 1.104 ± 0.024 | 1.113 ± 0.024 | 1.138 ± 0.024 | 1.154 ± 0.025 | 1.223 ± 0.026 | 1.297 ± 0.028

C/C=C/C(=O)OCC + CCO
viscosity [mPa·s], 101 kPa
Conditions | x1 = 0.0991 | x1 = 0.1985 | x1 = 0.2994 | x1 = 0.3961 | x1 = 0.5006 | x1 = 0.6 | x1 = 0.6968 | x1 = 0.7816 | x1 = 0.8996
293.15 K | 1.026 ± 0.0082 | 0.929 ± 0.0077 | 0.9257 ± 0.0078 | 0.9219 ± 0.008 | 0.878 ± 0.0079 | 0.8293 ± 0.0078 | 0.8016 ± 0.0079 | 0.8351 ± 0.0084 | 0.8122 ± 0.0087
298.15 K | 0.9334 ± 0.0076 | 0.8523 ± 0.0071 | 0.8465 ± 0.0072 | 0.8404 ± 0.0074 | 0.8061 ± 0.0074 | 0.7663 ± 0.0073 | 0.7402 ± 0.0073 | 0.7648 ± 0.0078 | 0.7535 ± 0.0081
303.15 K | 0.8498 ± 0.007 | 0.7812 ± 0.0066 | 0.7751 ± 0.0067 | 0.7739 ± 0.0069 | 0.7411 ± 0.0068 | 0.7061 ± 0.0068 | 0.6855 ± 0.0069 | 0.7052 ± 0.0073 | 0.7 ± 0.0076
313.15 K | 0.7166 ± 0.0061 | 0.6615 ± 0.0058 | 0.6607 ± 0.0059 | 0.6588 ± 0.006 | 0.6372 ± 0.006 | 0.6091 ± 0.006 | 0.5958 ± 0.0061 | 0.6134 ± 0.0064 | 0.6108 ± 0.0067
323.15 K | 0.6156 ± 0.0053 | 0.5747 ± 0.0051 | 0.5702 ± 0.0052 | 0.5686 ± 0.0053 | 0.5537 ± 0.0053 | 0.5363 ± 0.0054 | 0.5284 ± 0.0055 | 0.5414 ± 0.0058 | 0.5401 ± 0.006

CCOS(=O)(=O)[O-].CC[N+](CC)=C(N(C)C)N(C)C + CCO
viscosity [mPa·s], 100 kPa
Conditions | x1 = 0.1001 | x1 = 0.2003 | x1 = 0.2998 | x1 = 0.4023 | x1 = 0.4998 | x1 = 0.6016 | x1 = 0.6979 | x1 = 0.8024 | x1 = 0.8974
293.15 K | 2.916 ± 0.024 | 5.857 ± 0.048 | 11.49 ± 0.09 | 20.43 ± 0.17 | 32.82 ± 0.29 | 54.53 ± 0.43 | 82.56 ± 1.6 | 121 ± 3.8 | 160.5 ± 6.6
298.15 K | 2.62 ± 0.021 | 5.197 ± 0.042 | 9.941 ± 0.081 | 17.2 ± 0.14 | 27.12 ± 0.23 | 43.51 ± 0.41 | 64.03 ± 0.74 | 91.64 ± 2 | 119.1 ± 3.6
303.15 K | 2.373 ± 0.019 | 4.64 ± 0.038 | 8.688 ± 0.071 | 14.71 ± 0.12 | 22.61 ± 0.19 | 35.19 ± 0.32 | 50.61 ± 0.37 | 70.75 ± 1 | 90.75 ± 2
308.15 K | 2.155 ± 0.017 | 4.166 ± 0.034 | 7.649 ± 0.062 | 12.71 ± 0.1 | 19.18 ± 0.16 | 29.07 ± 0.25 | 40.85 ± 0.39 | 55.99 ± 0.49 | 70.53 ± 1
313.15 K | 1.964 ± 0.016 | 3.765 ± 0.03 | 6.793 ± 0.055 | 11.08 ± 0.09 | 16.48 ± 0.14 | 24.39 ± 0.21 | 33.63 ± 0.3 | 45.19 ± 0.45 | 56.15 ± 0.5
318.15 K | 1.797 ± 0.014 | 3.419 ± 0.028 | 6.036 ± 0.049 | 9.76 ± 0.08 | 14.28 ± 0.12 | 20.68 ± 0.18 | 27.81 ± 0.24 | 36.81 ± 0.35 | 45.06 ± 0.45
323.15 K | 1.649 ± 0.013 | 3.118 ± 0.025 | 5.43 ± 0.044 | 8.634 ± 0.071 | 12.47 ± 0.1 | 17.74 ± 0.15 | 23.62 ± 0.2 | 30.6 ± 0.28 | 36.93 ± 0.35
